Results reported in US20240245702A1, “Inhibition of Lysine Demethylase 1 (Lsd1) Induces Differentiation of Hair Cells” (Massachusetts Eye and Ear Infirmary, priority 2018, published 2024).

How the values were obtained:
[1] = tested on: Axin2; test: qRT-PCR of Axin2 in adult cochlea after noise damage and drug treatment; assay type: in vivo, mouse; settings: 3 days after drug treatment of noise-damaged animals, p<0.05
Protocol: (§1) RNA extraction and PCR. For the LCPs, the organoids were treated with Cell Recovery Solution for at 1 hour and TrypleE for 20 minutes, then frozen in RLT buffer. RNA extractions were performed using the RNeasy Micro Kit (QIAGEN) and cDNA generated using ImProm-II Reverse Transcription Kit (Promega). TaqMan Real-Time PCR was performed in triplicates using the TaqMan Gene Expression Master Mix (ThermoFisher Scientific) on a StepOne Real-Time PCR machine (ThermoFisher Scientific). Ordinary One-way Anova was used to assess statistical significance. A minimum of three biologically distinct samples were analyzed for each condition.
(§2) Round window drug administration. We used four-week-old mice weighing 12-15 g. The animals were anesthetized with ketamine ([…], intraperitoneally [i.p.]) and xylazine ([…], i.p.) prior to surgery. An incision was made posterior to the pinna near the external meatus to expose the otic bulla and subsequently the round window niche. pargyline and CHIR99021 dissolved in DMSO were diluted in polyethylene glycol 400 (Sigma) to obtain final concentrations of 0.1 and 5 mM. This solution (total volume 1 ul) was injected into the round window niche of the left ear. Polyethylene glycol 400 with 10% DMSO was injected into the right ear as a control. Gelfoam was placed on the niche to maintain the solution, and the wound was closed. […]

[2] = tested on: active β-catenin; test: Western blot for active β-catenin in differentiating LCPs; assay type: cell-based, mouse; settings: western blot after 4 days of differentiation, relative to untreated control
Protocol: Western blot analysis. For protein collection, cells were washed twice with PBS and then lysed by lysis buffer (20 mM HEPES, 400 mM NaCl, 1 mM EDTA, 0.1% NP-40 and 10% Glycerol) supplemented with HALT protease and phosphatase inhibitors (Thermo Fisher Scientific, Waltham, MA). Lysates were then centrifuged at 13,000 g for 15 min at 4° C., and each supernatant was collected. Protein concentration was determined using the Pierce BCA Protein Assay Kit (Pierce Biotechnology, Rockford, IL). Proteins within each lysate were separated by SDS-PAGE (Bio-Rad Laboratories, Inc., Hercules, CA) and transferred to polyvinylidene difluoride membranes. After incubation with primary antibody, membranes were washed with Tris-buffered saline with Tween 20 and exposed to an appropriate horseradish peroxidase-conjugated secondary antibody (Santa Cruz Biotechnology, Santa Cruz, CA); immunoblot signals were detected with Pierce ECL Western blotting substrate or ECL plus (Thermo Fisher Scientific, Waltham, MA).
Active canonical Wnt signaling is facilitated by the nuclear translocation of β-catenin, which binds with transcription factors of the Tcf/Lef family to activate transcription. To further validate our RNA-sequencing data, we proceeded to examine the levels of active β-catenin using western blot after pargyline treatment. […] We also analyzed Wnt activity in the treated cells using a Tcf/Lef reporter assay.

[3] = tested on: Hes1; test: qRT-PCR of Hes1 in adult cochlea after noise damage and drug treatment; assay type: in vivo, mouse; settings: 3 days after drug treatment of noise-damaged animals
Protocol: as §1, §2

[4] = tested on: Atoh1; test: qRT-PCR of Atoh1 in adult cochlea after noise damage and drug treatment; assay type: in vivo, mouse; settings: deaf adult cochlea relative to the control, 3 days after treatment, p<0.05
Protocol: as §1, §2

[5] = tested on: Lgr5-expressing cochlear progenitors cells (LCPs); test: Proliferation of Lgr5+ cochlear progenitors (LCPs) in organoid culture; assay type: cell-based, mouse; settings: first 10 days in culture, Lgr5-nGFP mice cells, combined with CHIR99021
Protocol: Isolation and expansion of inner ear Lgr5+ cells. A recently published protocol was used to derive organoids from inner ear stem cells [also referred to as Lgr5+ cochlear progenitors (LCPs) (McLean et al., 2017). Briefly, the organ of Corti was dissected from neonatal mice (postnatal days 2-5) in Hank's balanced salt solution and treated with Cell Recovery Solution (Corning) for 1 hour. The cochlear epithelium was then peeled from the underlying mesenchyme, collected and treated with TrypleE for 20 minutes at 37° C. The single cells were mechanically triturated, filtered ([…] cell strainer) and suspended in a Matrigel (Corning) dome for 3D culture. The cells were seeded in a 24-well plate, specifically at one cochlea per well of a 24-well plate.
For the drug screening experiments, the expanded cells were passaged into a 96 well plate to test varying drug combinations. All experiments were done in triplicate at minimum. Atoh1-nGFP cells were quantified after 10 days in culture. The cell colonies were incubated in Cell Recovery Solution for 1 hour and dissociated into single cells using TrypleE. The total cell number and percentage of GFP+ cells were quantified using fluorescence activated cell sorting (FACS).
We screened a collection of Lsd1 inhibitors over the first 10 days in culture (FIGS. 9A and 9B) to examine their effect on proliferation of LCPs (FIGS. 9C and 9D). […]

Structure (SMILES)	Axin2 mRNA level [1]	active β-catenin, fold change [2] [fold]	Hes1 mRNA level [3]	Atoh1 mRNA level [4]	proliferation of Lgr5 cells (LCP cell division) [5] [%]
Cc1c[nH]c(-c2cnc(NCCNc3ccc(C#N)cn3)nc2-c2ccc(Cl)cc2Cl)n1 [CHIR99021]	significantly higher levels	2.95	reduced levels	significantly elevated	–
CCCC(CCC)C(=O)O [valproic acid]	–	–	–	–	63
